Assay results taken from US20070203215A1, “Methods & Compositions For Enhancing Pharmaceutical Treatments” (Taiji Biomedical, Inc., priority 1999, published 2007).
Read-outs that look alike come from different tables or passages of the source.

What was measured:
[1] = mouse, in vivo
Description: Non-tumor bearing athymic mice were treated with the compound of Formula 2 and (or) paclitaxel as described.

[2] = system: MDA/LCC6 human breast carcinoma xenografts; experiment: In vivo antitumor efficacy, non-P-gp-expressing MDA/LCC6 xenografts; design: species or system SCID mice; conditions: non-P-gp expressing tumor cells, FIG. 2
Description: Anti-tumor efficacy experiments with orthotopic MDA/LCC6 and MDA/LCC6^MDR1 tumors were conducted in female SCID/RAG2 mice. Ascites propagated cells (2×10^6 in 50 μl) were injected into mammary fat pads bilaterally on day 0 before randomization into groups of 5 mice per group. Paclitaxel (12 mg/kg/dose) was administered QD i.v. (tail vein) in 200 μl saline/Cremophor/ethanol (8/1/1 by volume) on days 5, 12, 19, and 26. The compound of Formula 2-free base (30 mg/kg/dose) was administered BID p.o. by gavage in 100 μl PEG 400/Tween 20 (9/1 by volume) on days 4-6, 11-13, 18-20, and 25-27. Mean body weights were recorded at least every other day. Tumor weight was monitored approximately every other day by caliper measurements and calculated according to the formula (Tumor weight =(length×width^2)÷2). This conversion formula was verified by comparing the calculation derived tumor weights to excised and weighed tumors. Animals bearing ulcerated tumors or where tumor weight exceeded 10% of the animal's body weight were terminated. The weights of the bilateral tumors were averaged for each mouse and mean tumor weights for each treatment group±standard error of the mean were calculated. Statistical analysis was carried out by Mann-Whitney test using GraphPad Prism software (San Diego, Calif.).

[3] = system: CEM/VLB1000; experiment: Reversal of MDR in P-gp-expressing cell line; format: cell-based; conditions: Homo sapiens, CEM/VLB1000 lymphoma, ± SD
Description: (§1) Cell proliferation IC50s and MDR reversal EC50s were determined from 3-day dose-response curves carried out in triplicate in 96-well plates essentially as described by Monks et al. (J. Natl. Cancer Inst., 83:757-66, 1991). Cells were plated in standard growth medium at 2.5 or 5.0×10^4 per well (CCRF-CEM and CEM/VLB1000 respectively) or 5×10^3 per well (all other cell lines) in a final volume of 100 μl. After a 2 h incubation for non-adherent cells and overnight incubation for adherent cells, the initial cell density was determined by fluorescence readout of Alamar Blue metabolism. The compound of Formula 2, cytotoxic agents, or compound vehicles were added to duplicate plates and the incubation was continued for an additional 72 h. Final cell density was determined with Alamar Blue. In some experiments, a standard endpoint assay was used without analysis of initial cell density with Alamar Blue. Similar results were obtained with the two assays. EC50s were derived by nonlinear regression analysis assuming a sigmoidal dose-response using GraphPad Prism Software (San Diego, Calif.). Proliferation assays capable of measuring both cytostatic and cytotoxic responses were carried out as described herein with 15 non-transformed and transformed cell lines, including primary fibroblasts, non-transformed smooth muscle, leukemia, breast, colon, ovarian and uterine carcinoma cells (±P-gp expression). Although the compound of Formula 2 reversed P-gp-mediated MDR in the low nanomolar concentration range, the compound was non-cytotoxic by itself at doses up to 100 μM in all cell lines. […] IC50s for non-specific cytotoxicity were similar in matched cell lines plus and minus P-gp expression. […] If it were, some consistent degree of resistance would be expected in P-gp expressing cells.

[4] = system: HCT-15; experiment: Reversal of MDR in P-gp-expressing cell line; format: cell-based; conditions: Homo sapiens; HCT-15 colorectal carcinoma; read-out: Formula 2 compound EC50, reversal of Paclitaxel resistance
Description: as §1

[5] = system: MCF-7/ADR; experiment: Reversal of MDR in P-gp-expressing cell line; format: cell-based; conditions: Homo sapiens, NCI/ADR-RES, MCF-7/ADR breast, ± SD
Description: as §1

[6] = system: MES-SA/DX5; experiment: Reversal of MDR in P-gp-expressing cell line; format: cell-based; conditions: Homo sapiens, MES-SA/DX5 uterine, ± SD
Description: as §1

[7] = system: SK/VLB1000; experiment: Reversal of MDR in P-gp-expressing cell line; format: cell-based; conditions: Homo sapiens, SK/VLB1000 ovarian
Description: as §1

[8] = system: 15 non-transformed and transformed cell lines; experiment: Proliferation assays, 15 non-transformed and transformed cell lines (panel statements); format: cell-based, human; conditions: for IC50: Homo sapiens, 15 cell lines
Description: as §1

[9] = PK interaction study, i.v. plasma paclitaxel levels; format: in vivo, SCID/RAG2 mice; conditions: three oral doses of 30 mg/kg before i.v. 16 mg/kg paclitaxel, FIG. 5
Description: At the indicated times after paclitaxel administration, 3 mice per time point were anesthetized with CO2 and blood was removed by cardiac puncture into Microtainer tubes containing EDTA. Plasma samples generated by centrifugation were extracted with acetonitrile and the analysis for paclitaxel content was carried out by HPLC using a Waters 600E multisolvent delivery system, 717 plus autosampler and 996 photodiode array detector. Baccatin III (0.8 nmoles/200 μl plasma) was used as the internal standard (IS) and added to plasma samples during extraction with acetonitrile. Standard curve samples as well as quality control samples were also prepared from spiked control plasma in order to verify the accuracy of the HPLC analysis. […] Waters, Milford, Mass.) with double distilled water (A), and acetonitrile (B), using the following gradient profile: t=0 min, 10% B; t=5 min, 10% B; t=30 min, 65% B; t=40 min, 65% B; t=45 min, 10% B; t=50 min, 10% B. The gradient was formed using a high pressure mixer and the flow rate was 1.0 ml min^−1. A Waters 996 Photo Diode Array Detector was used to scan at multiple wavelengths and chromatograms were processed for traces obtained at 230 nm.

[10] = target: human CYP3A4 (Homo sapiens, UniProt P08684); experiment: Inhibition of CYP3A4-mediated paclitaxel metabolism; format: in vitro ADME
Source text: (§2) Two enzymes primarily responsible for metabolism of paclitaxel are P450 CYP3A4 and CYP2C8. Some P-gp inhibitors are also metabolized by P450 CYP 3A4, leading to inhibition of paclitaxel metabolism. This may contribute to PK interactions with paclitaxel.

[11] = target: P450 CYP3A4 (Homo sapiens, UniProt P08684); experiment: Metabolism by P450 CYP3A4; format: in vitro ADME
Source text: as §2

[12] = Saquinavir in rat cerebrospinal fluid and brain after oral ONT-093 or vehicle; format: in vivo, Sprague Dawley rats; conditions: Group 3: after OC-144-093 20 mg/kg p.o.; 30 min after saquinavir dose; individual animals 3001-3004; 20 mg/kg
Description: Blood samples (ca 0.3 mL) were collected from 8 selected rats by jugular venipuncture during slight anesthesia pre-dose and at 0.25, 0.5, 1, 2, 4 and 8 post-dose (saquinavir dose). Cerebrospinal fluid (CSF) and brain tissue were collected terminally from the remaining 8 rats at ca 30 min following administration of the dose of saquinavir. Blood samples were collected into tubes containing EDTA and placed on wet ice pending centrifugation. Plasma, CSF and brain tissue samples were stored at ca −80° C. until analysis of saquinavir by LC/MS. The vehicle used was polyethylene glycol (PEG-400)1 Tween 20 (9:1; v:v).
A total of 16 male Sprague Dawley rats were received from Charles River Canada (Saint-Constant, Quebec). Animals were approximately 9 weeks of age at arrival and weighed ca 312-340 g. Four males were randomly assigned to each of Groups 1, 2, 3 and 4. On the day of dosing and following an overnight fast, animals were weighed (ca 305-323 g) and were administered their respective combination of doses. Animals of Groups 1 and 3 received a single oral dose of ONT-093 (20 mg/kg) by gavage at a dose volume of 2 mL/kg. Animals of Groups 2 and 4 received a single oral dose of the vehicle by gavage at a dose volume of 2 mL/kg. Approximately 30 min following administration of either ONT-093 or the vehicle, all animals received a single oral dose of saquinavir (20 mg/kg) by gavage at a dose volume of 1 mL/kg.
Following administration of saquinavir, blood samples (ca 0.3 mL in EDTA) were obtained from all rats of Groups 1 and 2 by jugular venipuncture during anesthesia with isoflurane (Ohmeda Pharmaceutical Products) at each of the following time-points: pre-dose (prior to administration of ONT-093 or vehicle) and 0.25, 0.5, 1, 2, 4 and 8 hr post-dose. Following administration of saquinavir, CSF was obtained from all animals of Groups 3 and 4 at 30 min following dose administration. CSF was collected (in tubes containing no anticoagulant) from the cistema magna during anesthesia with isoflurane. Following CSF collection, the animals were sacrificed by exsanguination via puncture of the vena cava and the brain was harvested from all these rats. Immediately following collection, all samples (blood, CSF and brain) were placed on ice until further processing or storage. Blood samples were centrifuged (ca 3080 g at ca 4° C. for 10 min) and the resulting plasma samples were stored at ca −80° C. pending analysis. CSF samples and brains were stored at ca −80° C. pending analysis.
Plasma samples, CSF samples and brains were analyzed for unchanged saquinavir using an LC/MS assay. Pharmacokinetic analysis was performed on plasma concentrations using the PhAST Software Program, Version 2.2-00 (Phoenix International Life Sciences Inc.). The highest observable concentration was assumed to be the peak concentration (Cmax); Time to Cmax was denoted Tmax. The area under the plasma concentration versus time-curve from time zero to the last measurable concentration [AUC(tf] was calculated by the linear trapezoidal method. Where applicable, numerical values were subjected to calculation of group means and % CV. Student-T-test with Satterthwaite approximation was performed on AUC and Cmax values to compare ONT-093 treated animals versus vehicle treated animals using SAS software program, Version 6.12 (SAS Institute Inc., Gary, N.C.). Where values were below limit of quantification, zero was used for pharmacokinetic analysis. The bioavailability (F) of saquinavir when administered with ONT-093 was calculated relative to the AUC values obtained from the animals receiving saquinavir following administration of the vehicle.

[13] = read-out: Formula 2 compound EC50, reversal of Doxorubicin resistance
[14] = read-out: Formula 2 compound EC50, reversal of Vinblastine resistance
[15] = read-out: Formula 2 compound EC50, reversal of Paclitaxel resistance

Sequence of human CYP3A4 (P08684 whole entry): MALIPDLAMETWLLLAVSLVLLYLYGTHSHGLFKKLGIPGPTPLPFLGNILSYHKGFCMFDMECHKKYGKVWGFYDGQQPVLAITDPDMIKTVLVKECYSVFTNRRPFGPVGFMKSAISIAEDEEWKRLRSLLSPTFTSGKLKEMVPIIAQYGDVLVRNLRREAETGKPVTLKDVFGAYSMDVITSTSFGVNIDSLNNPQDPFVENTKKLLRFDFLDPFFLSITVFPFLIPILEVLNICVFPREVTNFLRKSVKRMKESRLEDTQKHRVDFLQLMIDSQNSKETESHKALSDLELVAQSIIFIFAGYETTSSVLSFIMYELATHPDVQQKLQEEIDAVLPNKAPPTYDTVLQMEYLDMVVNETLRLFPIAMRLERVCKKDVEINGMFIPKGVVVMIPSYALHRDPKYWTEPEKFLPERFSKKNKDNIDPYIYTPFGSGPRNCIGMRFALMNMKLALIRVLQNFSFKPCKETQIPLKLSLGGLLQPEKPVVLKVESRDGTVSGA
Sequence of P450 CYP3A4 (P08684 whole entry): as above

CCOC/C=C/c1ccc(-c2nc(-c3ccc(NC(C)C)cc3)c(-c3ccc(NC(C)C)cc3)[nH]2)cc1 [Formula 2 compound]
Effect on paclitaxel toxicity [1]: decreased paclitaxel toxicity
In vivo anti-tumor activity of paclitaxel [2]: did enhance
EC50 [3, 13]: 90 ± 60 nM
EC50 [3, 14]: 70 ± 10 nM
EC50 [4]: 1.6 nM
EC50 [5, 13]: 38 ± 6 nM
EC50 [5, 15]: 31 ± 4 nM
EC50 [5, 14]: 20 ± 10 nM
EC50 [6, 13]: 24 ± 6 nM
EC50 [6, 15]: 27 ± 7 nM
EC50 [6, 14]: 34 ± 7 nM
EC50 [7, 15]: 33 nM
EC50 [7, 14]: 15 nM
EC50 ([7]; ± SD, read-out: Formula 2 compound EC50, reversal of Doxorubicin resistance): 25 ± 8 nM
IC50 ([8]; read-out: Cytostatic IC50, average value): 60000 nM
IC50 ([8]; read-out: Cytostatic IC50s, range over cell lines): 6000 to 170000 nM
Cytotoxicity by itself ([8]; at doses up to 100 μM, all cell lines): non-cytotoxic
Effect on i.v. plasma paclitaxel levels [9]: no effect
Ki [10]: 39800 ± 5100 nM
Ki (CYP3A4) relative to EC50s for reversal of MDR ([10]; higher): approximately 1000 fold
Metabolism by P450 CYP3A4 [11]: not metabolized
Saquinavir Concentration in CSF [12]: BLQ
